Drawing on BindingDB's records for patent US10538523 (PFIZER LIMITED, 2020), this text covers Ki for one compound.

The assay has as its target T1, Gamma-aminobutyric acid receptor subunit alpha-2 (Homo sapiens, UniProt P18507+P47869+P47870).
T1 sequence (P47869 whole entry): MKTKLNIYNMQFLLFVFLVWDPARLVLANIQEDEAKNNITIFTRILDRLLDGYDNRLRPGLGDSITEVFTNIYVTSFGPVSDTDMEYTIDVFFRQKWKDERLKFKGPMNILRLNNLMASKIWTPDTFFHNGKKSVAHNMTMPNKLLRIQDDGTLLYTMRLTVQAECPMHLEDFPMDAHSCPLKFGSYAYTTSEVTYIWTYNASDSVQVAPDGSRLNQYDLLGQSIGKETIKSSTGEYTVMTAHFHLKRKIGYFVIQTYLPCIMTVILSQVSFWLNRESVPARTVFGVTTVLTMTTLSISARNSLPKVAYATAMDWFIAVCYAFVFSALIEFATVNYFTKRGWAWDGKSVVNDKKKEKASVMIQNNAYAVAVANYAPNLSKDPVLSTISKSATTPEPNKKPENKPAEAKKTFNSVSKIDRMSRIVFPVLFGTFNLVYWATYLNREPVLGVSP
Kind of assay: Binding Assay. The method, then:
100 ul of radioligand and 100 ul of membrane in 50 mM Tris-HCl and 0.05% F127 with 1 ul of test compound was incubated for 2 hours to allow the reaction to achieve equilibrium, and then harvested onto filter plates, dried and counted on a TopCount NXT. The data was analysed, and the Ki values were presented as the geometric mean of at least two replicates.

With `CCn1ncc2c(-c3ccc(F)c(-c4cc5c(cc4OC)C(=O)N(C)C5)c3)cnnc21` [US10538523, Example 3], the Ki (as a rule, the equilibrium dissociation constant of an inhibitor or competing ligand from its target) worked out at 0.0118 µM.
